Source: patent US7829524B2, “Antimicrobial peptides” (Novozymes Adenium Biotech A/S, priority 2003, dated 2010)
Where no end group is shown, it is not given here.

Key:
Assay type in all cases: cell-based
[1] = tested on: Staphylococcus epidermidis (DSM1798); test: Radial diffusion assay (MEC); details: susceptible species
Experimental: (§1) A modified version of a previously published protocol has been applied in the detection of antimicrobial activity (Lehrer et al., (1991) Ultra sensitive assays for endogenous antimicrobial polypeptides J Immunol Methods 137: 167-173). Target bacteria (10^6 colony forming units (CFU)) were added to 10 ml of underlay agarose (1% low electro-endosmosis agarose, 0.03% Trypticase soy broth, 10 mM sodium phosphate, pH 7.4, 37 degrees Celsius). Suspension was solidified on an INTEGRID Petri Dish (Becton Dickinson Labware). A 3 mm Gel Puncher was used to make holes in the underlay agarose (Amersham Pharmacia Biotech, Sweden). Samples were added to the holes and incubated at 37 degrees Celsius, 3 hours. An overlay was poured on top and the plate was incubated overnight (LB media, 7.5% Agar). Antimicrobial activity was seen as bacterial clearing zones around the wells. Living cells was counterstained by adding 10 ml, 0.2 mM MTT (3-(4,5-Dimethylthiazol-2-yl)-2,5-diphenyltetrazolium bromide Thiazolyl blue).

[2] = tested on: Bortadella bronchiseptica (ATCC4617); test: Radial diffusion assay (MEC); details: susceptible species
Experimental: as §1

[3] = tested on: Streptotoccus pyogenes ATCC 4543
Experimental: (§2) According to the NCCLS guidelines for susceptibility test of novel antimicrobial compounds, we found a broad spectrum of activity of Cat1 (Methods for Dilution Antimicrobial Susceptibility Tests for Bacteria That Grow Aerobically; Approved Standard-Fifth Edition. NCCLS document M7-A5 (ISBN1-56238-394-9)).
(§3) In another campaign, the specific MICs of Cat1 were determined against a variety of microbial strains relevant for wound infections. As recommended in the above-mentioned NCCLS protocol, the strains were grown in cationic adjusted Muller-Hinton Broth. The highest concentration tested was 32 μg/ml.

[4] = tested on: Staphyloloccus aureus GISA ATCC 700699
Experimental: as §2, §3

[5] = tested on: Acinetobacter baumanii ATCC 49137
Experimental: as §2, §3

[6] = tested on: Streptococcus pneumoniae ATCC 10015
Experimental: as §2, §3

[7] = tested on: Aerococcus viridans ATCC 700406
Experimental: as §2, §3

[8] = tested on: Bordetella bronchiseptica ATCC 14064
Experimental: as §2, §3

[9] = tested on: Escherichia coli ATCC 25922
Experimental: as §2, §3

[10] = tested on: Citrobacter freundii ATCC 11811
Experimental: as §2, §3

[11] = tested on: Staphylococcus epidermidis ATCC 12228
Experimental: as §2, §3

[12] = tested on: Stenotrophomonas maltophilia ATCC 12714
Experimental: as §2, §3

[13] = tested on: Morganella morganii ATCC 21116
Experimental: as §2, §3

[14] = tested on: Streptococcus agalactiae ATCC 624
Experimental: as §2, §3

[15] = tested on: Klebsiella pneumoniae ATCC 29995
Experimental: as §2, §3

[16] = tested on: Staphylococcus aureus (MSSA) ATCC 25923
Experimental: as §2, §3

“GLLRRLRKKIGKKLKKIGQKIKPIRILVP [SEQ ID NO: 3]” was tested, and the “Minimal Effective Concentration (MEC)” value [1] was < 64 µg/mL, the “Minimal Effective Concentration (MEC)” value [2] was < 64 µg/mL and the MIC [3] was 1.5 µg/mL. It also gave an MIC [4] of 32 µg/mL, an MIC [5] of 8 µg/mL and an MIC [6] of 8 µg/mL. The MIC [7] was 0.5 µg/mL, the MIC [8] was 0.5 µg/mL and the MIC [9] was 1.5 µg/mL. It also gave an MIC [10] of 1.5 µg/mL, an MIC [11] of 4 µg/mL and an MIC [12] of 1 µg/mL. It also gave an MIC [13] of 1.5 µg/mL, an MIC [14] of 16 µg/mL and an MIC [15] of 8 µg/mL. For the same sequence, the MIC [16] was 32 µg/mL.
